Consider 57 compounds from US20100120789A1, “Compound” (priority 2005, published 2010).

The term melting point denotes the temperature, or range, at which the solid turns liquid.

Turning to `COc1cc2c(cc1O)CCN(C(=O)C13CC4CC(CC(C4)C1)C3)C2`, the melting point is 224 to 228 °C.

Compound `CSc1ccc(CN(C)C(=O)C23CC4CC(CC(C4)C2)C3)s1` showed a melting point of 73 to 75.5 °C.

The compound `CC(C(=O)NCc1cccs1)(c1ccccc1)c1ccccc1` [STX1640, 2,2-Diphenyl-N-thiophen-2-ylmethyl-propionamide] returned a melting point of 90 to 91 °C.

As to `O=C(NCCc1cccs1)[C@@H]1CC2C=CC1C2` (stereo partly drawn) [STX1708, Bicyclo[2.2.1]hept-5-ene-2-carboxylic acid(2-thiophen-2-yl-ethyl)-amide (endo)], the melting point lay in the range of 122 to 124 °C.

Compound `CC(C)(C)c1ccc(CS(=O)(=O)CC(=O)C23CC4CC(CC(C4)C2)C3)cc1` returned a melting point of 127.7 °C.

For the compound `O=C(NCc1ccco1)c1ccc(OCC(=O)C23CC4CC(CC(C4)C2)C3)cc1`, the melting point is 162.2 °C.

As to `O=C(NCCc1cccs1)C12CC3CC(CC1C3)C2` [STX1656, Hexahydro-2,5-methano-pentalene-3a-carboxylic acid(2-thiophen-2-yl-ethyl)-amide], the melting point fell in the range of 113 to 114 °C.

The compound `Cc1ccc(CNC(=O)C2CCN(C(=O)C34CC5CC(CC(C5)C3)C4)CC2)cc1` showed a melting point of 155.5 to 157 °C.

The compound `CN(Cc1cccnc1)C(=O)C12CC3CC(CC(C3)C1)C2` [STX2135, Adamantane-1-carboxylic acid methyl-pyridin-3-ylmethyl-amide] had a melting point of 57 to 59.5 °C.

`O=C(C[S+]([O-])Cc1cccs1)C12CC3CC(CC(C3)C1)C2` (stereo not drawn) [STX1929, 1-Adamantan-1-yl-2-(thiophen-2-ylmethanesulfinyl)-ethanone] gave a melting point of 95 to 98 °C.

Regarding `O=S(=O)(NC12CC3CC(CC(C3)C1)C2)c1cc(Cl)ccc1Cl` [STX1342, N-Adamantan-1-yl-2,5-dichloro-benzenesulfonamide], the melting point is 189 to 190 °C.

`Cc1nc2c(NC(=O)C34CC5CC(CC(C5)C3)C4)c(C)ccc2s1` [STX1372, Adamantane-1-carboxylic acid (2,5-dimethyl-benzothiazol-4-yl)-amide] had a melting point of 183.5 to 185 °C.

Turning to `Cn1ccnc1S(=O)(=O)CC(=O)C12CC3CC(CC(C3)C1)C2` [STX2294, 1-Adamantan-1-yl-2-(1-methyl-1H-imidazole-2-sulfonyl)-ethanone], the melting point fell in the range of 124 to 125 °C.

As for `CN(Cc1ccc(Cl)cc1)C(=O)CC12CC3CC(CC(C3)C1)C2`, the melting point was 75 to 76 °C.

`O=C(NCCc1cccs1)NC12CC3CC(CC(C3)C1)C2` [STX1714, 1-Adamantan-1-yl-3-(2-thiophen-2-yl-ethyl)-urea] returned a melting point of 138 to 142 °C.

In turn, `Cc1cccc(CS(=O)(=O)CC(=O)C23CC4CC(CC(C4)C2)C3)c1` showed a melting point of 132.8 °C.

`Cc1cccc(CN2CCN(C(=O)CC34CC5CC(CC(C5)C3)C4)CC2)c1` [STX2403, 2-Adamantan-1-yl-1-[4-(3-methyl-benzyl)-piperazin-1-yl]-ethanone] yielded a melting point of 86 to 88 °C.

Turning to `CC12CC3CC(C)(C1)CC(C(=O)NCCc1cccs1)(C3)C2` [STX1672, 3,5-Dimethyl-adamantane-1-carboxylic acid(2-thiophen-2-yl-ethyl)-amide], the melting point was 131 to 132 °C.

In turn, `Cc1ccc(CN(C)C(=O)C23CC4CC(CC(C4)C2)C3)cc1` [STX2003, Adamantane-1-carboxylic acid methyl-(4-methyl-benzyl)-amide] displayed a melting point of 93 to 95 °C.

With `Cc1nc2cc(NCC(=O)C(C)(C)C)ccc2s1` [STX1740, 3,3-Dimethyl-1-(2-methyl-benzothiazol-5-ylamino)-butan-2-one], the melting point is 108 to 111 °C.

`O=C(N1CCN(c2ccccn2)CC1)C12CC3CC(CC(C3)C1)C2` [STX2065, Adamantan-1-yl-(4-pyridin-2-yl-piperazin-1-yl)-methanone] registered a melting point of 137 to 140 °C.

`O=C(Cc1ccc(OCC(=O)C23CC4CC(CC(C4)C2)C3)cc1)Nc1ccccc1` gave a melting point of 153.4 °C.

In the case of `CN(Cc1ccco1)C(=O)C12CC3CC(CC(C3)C1)C2` [STX2247, Adamantane-1-carboxylic acid furan-2-ylmethyl-methyl-amide], the melting point was in the range of 53.5 to 54.5 °C.

`COc1cc2c(cc1OCc1ccccc1)CCN(C(=O)CC13CC4CC(CC(C4)C1)C3)C2` returned a melting point of 133 to 135 °C.

In turn, `Cc1cccc(CN(C)C(=O)C23CC4CC(CC(C4)C2)C3)n1` [STX2134, Adamantane-1-carboxylic acid methyl-(6-methyl-pyridin-2-ylmethyl)-amide] gave a melting point of 76 to 77.5 °C.

Consider `CN(CC(=O)C12CC3CC(CC(C3)C1)C2)Cc1cccs1.Cl`, for which the melting point fell in the range of 201 to 203 °C.

The compound `COC(=O)Cc1ccc(OCC(=O)C23CC4CC(CC(C4)C2)C3)cc1` [STX2320, [4-(2-Adamantan-1-yl-2-oxo-ethoxy)-phenyl]-acetic acid methyl ester] returned a melting point of 71.9 °C.

Turning to `CN(Cc1ccc(Cl)s1)C(=O)CC12CC3CC(CC(C3)C1)C2`, the melting point is 73.5 to 75 °C.

As to `CN(CCc1ccccn1)C(=O)C12CC3CC(CC(C3)C1)C2` [STX1887, Adamantane-1-carboxylic acid methyl-(2-pyridin-2-yl-ethyl)-amide], the melting point lay in the range of 64 to 65 °C.

In turn, `O=C(CC12CC3CC(CC(C3)C1)C2)N1CCN(Cc2ccc(Cl)cc2)CC1` [STX2402, 2-Adamantan-1-yl-1-[4-(4-chloro-benzyl)-piperazin-1-yl]-ethanone] displayed a melting point of 119 to 121 °C.

The compound `CN(CCc1cccs1)C(=O)C12CC3CC(CC(C3)C1)C2` [STX1910, Adamantane-1-carboxylic acid methyl-(2-thiophen-2-yl-ethyl)-amide] registered a melting point of 95 to 99 °C.

The compound `O=S(=O)(NCC12CC3CC(CC(C3)C1)C2)c1ccc(-c2ccccc2)cc1` [STX1371, Biphenyl-4-sulfonic acid (adamantan-1-ylmethyl)-amide] came in with a melting point of 188 to 189.5 °C.

The compound `O=C(NCc1ccccc1)c1ccc(OCC(=O)C23CC4CC(CC(C4)C2)C3)cc1` gave a melting point of 145.6 °C.

In turn, `Cc1ccc(CNC(=O)C23CC4CC(CC(C4)C2)C3)cc1` registered a melting point of 137 to 140 °C.

For the compound `O=C(NC12CC3CC(CC(C3)C1)C2)OCc1cccs1` [STX1711, Adamantan-1-yl-carbamic acid thiophen-2-ylmethyl ester], the melting point was in the range of 66 to 68 °C.

`O=C(O)c1cccc(OCC(=O)C23CC4CC(CC(C4)C2)C3)c1` [STX2361, 3-(2-Adamantan-1-yl-2-oxo-ethoxy)-benzoic acid] displayed a melting point of 156.2 °C.

`COC(=O)c1cccc(OCC(=O)C23CC4CC(CC(C4)C2)C3)c1` came in with a melting point of 84.5 °C.

For the compound `CN(Cc1cccs1)C(=O)CS(=O)(=O)C12CC3CC(CC(C3)C1)C2`, the melting point was 120 to 122 °C.

Regarding `O=C(O)c1ccc(OCC(=O)C23CC4CC(CC(C4)C2)C3)cc1` [STX2318, 4-(2-Adamantan-1-yl-2-oxo-ethoxy)-benzoic acid], the melting point came to 185.2 °C.

Turning to `O=C(NCc1cccs1)C12CC3CC(CC(C3)C1)C2` [STX1374, Adamantane-1-carboxylic acid (thiophen-2-ylmethyl)-amide], the melting point was in the range of 155 to 155.5 °C.

The compound `CC(C)(C)C(=O)NCc1cccs1` [STX1673, 2,2-Dimethyl-N-thiophen-2-ylmethyl-propionamide] returned a melting point of 64 to 65 °C.

With `O=C(CSc1cccs1)C12CC3CC(CC(C3)C1)C2` [STX1902, 1-Adamantan-1-yl-2-(thiophen-2-ylsulfanyl)-ethanone], the melting point was 69 to 72 °C.

`O=C(Nc1cccnc1)C12CC3CC(CC(C3)C1)C2` [STX2399, Adamantane-1-carboxylic acid pyridin-3-ylamide] had a melting point of 129 to 131 °C.

The compound `O=C(CS(=O)(=O)c1cccs1)C12CC3CC(CC(C3)C1)C2` [STX2295, 1-Adamantan-1-yl-2-(thiophene-2-sulfonyl)-ethanone] yielded a melting point of 117.5 to 119 °C.

With `O=S(=O)(NCC12CC3CC(CC(C3)C1)C2)c1cc(Cl)ccc1Cl` [STX1369, N-Adamantan-1-ylmethyl-2,5-dichloro-benzenesulfonamide], the melting point is 197 to 198 °C.

The compound `O=C(C[S+]([O-])c1cccs1)C12CC3CC(CC(C3)C1)C2` (stereo not drawn) [STX1930, 1-Adamantan-1-yl-2-(thiophene-2-sulfinyl)-ethanone] had a melting point of 114 to 115.5 °C.

Compound `O=C(NCCc1cccs1)C12CC3CC(CC(O)(C3)C1)C2` [STX1676, 3-Hydroxy-adamantane-1-carboxylic acid(2-thiophen-2-yl-ethyl)-amide] displayed a melting point of 118 to 119 °C.

In the case of `Cn1ccnc1SCC(=O)C12CC3CC(CC(C3)C1)C2` [STX1898, 1-Adamantan-1-yl-2-(1-methyl-1H-imidazol-2-ylsulfanyl)-ethanone], the melting point was 65 to 69 °C.

For `O=C(N1CCN(Cc2ccc(Cl)cc2)CC1)C12CC3CC(CC(C3)C1)C2`, the melting point lay in the range of 141.5 to 143 °C.

Consider `CC(=O)Nc1ccc([S+]([O-])CC(=O)C23CC4CC(CC(C4)C2)C3)cc1` (stereo not drawn), for which the melting point lay in the range of 173.5 to 175.5 °C.

Turning to `COc1cc2c(cc1OC)CN(C(=O)C13CC4CC(CC(C4)C1)C3)CC2`, the melting point was in the range of 151 to 155 °C.

For the compound `CC12CC3CC(C)(C1)CC(C(=O)NCc1cccs1)(C3)C2` [STX1671, 3,5-Dimethyl-adamantane-1-carboxylic acid(thiophen-2-ylmethyl)-amide], the melting point lay within 101 to 103 °C.

Turning to `COc1cc2c(cc1OC)CN(C(=O)CC13CC4CC(CC(C4)C1)C3)CC2`, the melting point lay within 165 to 167 °C.

In the case of `O=C(CC12CC3CC(CC(C3)C1)C2)N1CCc2sccc2C1`, the melting point lay within 121 to 125 °C.

Consider `CN(Cc1cccs1)C(=O)C12CC3CC(CC(O)(C3)C1)C2`, for which the melting point was in the range of 88 to 91 °C.

In turn, `COc1cc2c(cc1O)CCN(C(=O)CC13CC4CC(CC(C4)C1)C3)C2` registered a melting point of 169 to 172 °C.

In turn, `COC(=O)c1ccc(OCC(=O)C23CC4CC(CC(C4)C2)C3)cc1` registered a melting point of 128.7 °C.
